{"source": "patent US12497405B2", "about": "“Bicyclic heterocycle compounds methods of use thereof for the treatment of herpes viruses” (Merck Sharp & Dohme LLC, priority 2019, dated 2025)", "key": {"[1]": {"target": "Human cytomegalovirus DNA polymerase (Human cytomegalovirus (strain AD169) (HHV-5) (Human herpesvirus 5), UniProt P08546)", "assay": "CMV polymerase assay (AlphaLISA)", "assay_type": "biochemical", "conditions": "HCMV polymerase 0.2 nM, 30 min pre-incubation, 60 minute at 37° C.", "method": "(§1) Human cytomegalovirus and varicella zoster virus DNA polymerases were expressed via baculovirus vector in SF21 cells and purified. Heterodimeric nucleic acid substrate used in the herpesvirus polymerase reactions were generated by annealing a 59-mer template to a 17-mer digoxigenin-labeled primer. Polymerase (HCMV final concentration of 0.2 nM; VZV final concentration of 0.4 nM) was combined with an inhibitor compound or DMSO in assay buffer (10 mM HEPES, pH 7.5, 25 mM KCl, 25 mM NaCl, 5 mM MgCl2, 5% glycerol, 0.67 mg/ml bovine serum albumin, and 1 mM tris(2-carboxyethyl)phosphine)), and this mixture was pre-incubated for 30 minutes at room temperature in 384-well microtiter plates. The polymerization reaction was initiated by the addition of template/primer substrate (final concentration: 1.6 nM), and dNTPs (final concentration: 24 nM dCTP, 24 nMdGTP, 16 nM dATP, 16 nM dTTP, and 0.8 nM biotin-dUTP). After a 60 minute incubation period at 37° C., the reactions were terminated using quench buffer (25 mM HEPES pH 7.5, 100 mM NaCl, 0.25% Tween-20, 12 mM EDTA, and 1 mg/ml bovine serum albumin). Incorporation of biotinylated UTP was detected with 2.5-5 μg/mL anti-DIG AlphaLISA acceptor beads and 5-10 μg/mL streptavidin AlphaLISA donor beads (PerkinElmer). Compound effects were normalized to the window defined by the controls (DMSO only and pre-quenched wells), and were fit using a 4-parameter algorithm to report an IC50."}, "[2]": {"target": "varicella zoster virus DNA polymerase (Varicella-zoster virus (strain Dumas) (HHV-3) (Human herpesvirus 3), UniProt P09252)", "assay": "VZV polymerase assay (AlphaLISA)", "assay_type": "biochemical", "conditions": "VZV polymerase 0.4 nM, 30 min pre-incubation, 60 minute at 37° C.", "method": "as §1"}, "HSV2": {"system": "HSV2", "assay": "Viral qPCR assay, HSV2", "assay_type": "cell-based", "conditions": "infected cells, viral genome copies by qPCR normalized to PPIA, read-out: HSV2 Cell EC50", "method": "(§2) MRC5 cells, Vero cells, and MeWo cells were obtained from ATCC, and were maintained at 37° C./5% CO2/90% relative humidity in Minimal Essential Medium with 10% fetal bovine serum, […] L-glutamine, 100 units/ml penicillin and 100 ug/ml streptomycin. Assay plates were prepared by dispensing compounds dissolved in DMSO into wells of 384 well collagen-coated plates using an ECHO acoustic dispenser. Each test compound was tested in a 10-point, serial 3-fold dilution. Controls included uninfected cells and infected cells treated only with DMSO. Assays were initiated by mixing selected cells, in suspension, with virus, and dispensing 50 μl/well infected cells to pre-plated compounds. Plates were incubated at 37° C./5% CO2/90% relative humidity for ˜72 hrs to permit genomic replication, and infected cells were lysed by the addition of an equal volume of lysis buffer (10 mM Tris-HCl, pH8, 50 mM KCl, 2 mM MgCl2, 0.45% NP-40, 0.45% Tween-20, and 100 µg/ml proteinase K). An aliquot of the lysate was then transferred to a 384-well PCR plate and incubated at 56° C. for 1 hour, and then at 95° C. for 10 minutes. Levels of the selected viral gene and of the cellular control, PPIA, were measured in separate 10 μl qPCR assays using TaqMan® Gene Expression Master Mix (Applied Biosystems), and an 7900HT Fast Real-Time PCR System with 384-Well Block Module. 7-point, serial 10-fold dilutions of a plasmid standard were run on each plate to generate a standard curve, and genome copies numbers were calculated by plotting experimental Ct onto linear regression of the standard curve. Viral genome copy numbers were normalized by cellular control copy number, and compound effects were normalized to the window defined by the controls. Calculated % effects were fit using a 4-parameter algorithm, and EC50 was reported."}, "HSV1": {"system": "HSV1", "assay": "Viral qPCR assay, HSV1", "assay_type": "cell-based", "conditions": "infected cells, viral genome copies by qPCR normalized to PPIA, read-out: HSV1 Cell EC50", "method": "as §2"}, "CMV": {"system": "CMV", "assay": "Viral qPCR assay, CMV", "assay_type": "cell-based", "conditions": "infected cells, viral genome copies by qPCR normalized to PPIA, read-out: CMV Cell EC50", "method": "as §2"}}, "note": "Like-named read-outs stand apart in the source and are kept apart here.", "data": [{"smiles": "CC(c1ccc(Cl)cc1)n1ccc2ncc(O[C@H]3CCN4C(=O)OC[C@@H]4C3)cc2c1=O", "note": "(single isomer, unassigned) [Example 30]", "values": [{"measurement": "IC50", "setting": "[1]", "value": 207, "unit": "nM"}, {"measurement": "IC50", "setting": "[2]", "value": 157, "unit": "nM"}]}, {"smiles": "CC(=O)N1CC[C@@H](Oc2cnc3ccn(Cc4ccc(Cl)cc4)c(=O)c3c2)C[C@H]1C", "note": "(single isomer, unassigned) [Example 35]", "values": [{"measurement": "IC50", "setting": "[1]", "value": 66, "unit": "nM"}, {"measurement": "IC50", "setting": "[2]", "value": 82, "unit": "nM"}]}, {"smiles": "COc1ncc(-c2cc3nc(C)n(Cc4ccc(Cl)cc4)c(=O)c3cc2O[C@H]2CCN3C(=O)OC[C@@H]3C2)cn1", "note": "[Example 5]", "values": [{"measurement": "EC50", "setting": "HSV2; ~72 hrs", "value": 85, "unit": "nM"}, {"measurement": "EC50", "setting": "HSV1; ~72 hrs", "value": 131, "unit": "nM"}, {"measurement": "IC50", "setting": "[1]", "value": 15, "unit": "nM"}, {"measurement": "EC50", "setting": "CMV; ~72 hrs", "value": 107, "unit": "nM"}]}, {"smiles": "CN1CCN(c2ccc3ccn(Cc4ccc(Cl)cc4)c(=O)c3c2)CC1", "note": "[Example 21]", "values": [{"measurement": "IC50", "setting": "[1]", "value": 5850, "unit": "nM"}, {"measurement": "IC50", "setting": "[2]", "value": 7330, "unit": "nM"}]}, {"smiles": "O=C1OC[C@@H]2C[C@@H](Oc3ccc4c(CO)cn(Cc5ccc(Cl)cc5)c(=O)c4c3)CCN12", "note": "[Example 29]", "values": [{"measurement": "EC50", "setting": "HSV1; Human alphaherpesvirus 1, 72 h", "value": 256, "unit": "nM"}, {"measurement": "IC50", "setting": "[1]", "value": 21, "unit": "nM"}, {"measurement": "EC50", "setting": "CMV; Human betaherpesvirus 5, 72 h", "value": 240, "unit": "nM"}, {"measurement": "IC50", "setting": "[2]", "value": 13, "unit": "nM"}]}, {"smiles": "C[C@@H]1CN(C2CCOCC2)CCN1c1ccc2ncn(Cc3ccc(Cl)cc3)c(=O)c2c1", "note": "[Example 43]", "values": [{"measurement": "IC50", "setting": "[1]", "value": 9820, "unit": "nM"}, {"measurement": "IC50", "setting": "[2]", "value": 4960, "unit": "nM"}]}, {"smiles": "C[C@@H]1CN(C)CCN1c1cc2c(=O)n(Cc3ccc(Cl)cc3)cnc2cc1-c1cnn(C(F)F)c1", "note": "[Example 50]", "values": [{"measurement": "IC50", "setting": "[1]", "value": 545, "unit": "nM"}, {"measurement": "IC50", "setting": "[2]", "value": 422, "unit": "nM"}]}, {"smiles": "C[C@@H]1CN(C)CCN1c1cc(CC(C)(C)O)c2ncn(Cc3ccc(Cl)cc3)c(=O)c2c1", "note": "[Example 55]", "values": [{"measurement": "IC50", "setting": "[1]", "value": 109, "unit": "nM"}, {"measurement": "IC50", "setting": "[2]", "value": 139, "unit": "nM"}]}, {"smiles": "COc1ccc(-c2cc3ncn(Cc4ccc(Cl)cc4)c(=O)c3cc2O[C@H]2CCN3C(=O)OC[C@@H]3C2)cn1", "note": "[Example 57]", "values": [{"measurement": "IC50", "setting": "[1]", "value": 43, "unit": "nM"}, {"measurement": "IC50", "setting": "[2]", "value": 43, "unit": "nM"}]}, {"smiles": "Cc1nc2cc(C#N)c(N3CCN(C)C[C@H]3C)cc2c(=O)n1Cc1ccc(C#N)cc1F", "note": "[Example 63]", "values": [{"measurement": "EC50", "setting": "HSV2; Human alphaherpesvirus 2, 72 h", "value": 3710, "unit": "nM"}, {"measurement": "EC50", "setting": "HSV1; Human alphaherpesvirus 1, 72 h", "value": 3150, "unit": "nM"}, {"measurement": "IC50", "setting": "[1]", "value": 235, "unit": "nM"}, {"measurement": "EC50", "setting": "CMV; Human betaherpesvirus 5, 72 h", "value": 498, "unit": "nM"}]}, {"smiles": "Cc1nc2c(CC(C)(C)O)cc(O[C@H]3CCN4C(=O)OC[C@@H]4C3)cc2c(=O)n1Cc1ccc(Cl)cc1", "note": "[Example 67]", "values": [{"measurement": "IC50", "setting": "[1]", "value": 22, "unit": "nM"}, {"measurement": "IC50", "setting": "[2]", "value": 53, "unit": "nM"}]}, {"smiles": "O=C1OC[C@@H]2C[C@@H](Oc3cc4c(=O)n(Cc5ccc(Cl)cc5)c(CN5CCOCC5)nc4cc3-c3cnn(C(F)F)c3)CCN12", "note": "[Example 125]", "values": [{"measurement": "EC50", "setting": "HSV2; Human alphaherpesvirus 2, 72 h", "value": 1280, "unit": "nM"}, {"measurement": "EC50", "setting": "HSV1; Human alphaherpesvirus 1, 72 h", "value": 3830, "unit": "nM"}, {"measurement": "EC50", "setting": "CMV; Human betaherpesvirus 5, 72 h", "value": 4240, "unit": "nM"}]}, {"smiles": "O=C1OC[C@@H]2C[C@@H](Oc3cc4c(=O)n(Cc5ccc(Cl)cc5)c(OC5CCOCC5)nc4cc3-c3cnn(C(F)F)c3)CCN12", "note": "[Example 126]", "values": [{"measurement": "EC50", "setting": "HSV2; Human alphaherpesvirus 2, 72 h", "value": 140, "unit": "nM"}, {"measurement": "EC50", "setting": "HSV1; Human alphaherpesvirus 1, 72 h", "value": 372, "unit": "nM"}, {"measurement": "EC50", "setting": "CMV; Human betaherpesvirus 5, 72 h", "value": 205, "unit": "nM"}]}, {"smiles": "Cc1nc2cc(-c3cccnn3)c(O[C@H]3CCN4C(=O)OC[C@@H]4C3)cc2c(=O)n1Cc1ccc(Cl)cc1", "note": "[Example 127]", "values": [{"measurement": "EC50", "setting": "HSV2; Human alphaherpesvirus 2, 72 h", "value": 793, "unit": "nM"}, {"measurement": "EC50", "setting": "HSV1; Human alphaherpesvirus 1, 72 h", "value": 484, "unit": "nM"}, {"measurement": "EC50", "setting": "CMV; Human betaherpesvirus 5, 72 h", "value": 280, "unit": "nM"}]}, {"smiles": "Cc1cnc(-c2cc3nc(C)n(Cc4ccc(Cl)cc4)c(=O)c3cc2O[C@H]2CCN3C(=O)OC[C@@H]3C2)cn1", "note": "[Example 128]", "values": [{"measurement": "EC50", "setting": "HSV2; Human alphaherpesvirus 2, 72 h", "value": 131, "unit": "nM"}, {"measurement": "EC50", "setting": "HSV1; Human alphaherpesvirus 1, 72 h", "value": 217, "unit": "nM"}, {"measurement": "EC50", "setting": "CMV; Human betaherpesvirus 5, 72 h", "value": 114, "unit": "nM"}]}, {"smiles": "O=C1OC[C@@H]2C[C@@H](Oc3cc4c(=O)n(Cc5ccc(Cl)cc5)c(CN5CCC5)nc4cc3-c3cnn(C(F)F)c3)CCN12", "note": "[Example 129]", "values": [{"measurement": "EC50", "setting": "HSV2; Human alphaherpesvirus 2, 72 h", "value": 135, "unit": "nM"}, {"measurement": "EC50", "setting": "HSV1; Human alphaherpesvirus 1, 72 h", "value": 178, "unit": "nM"}, {"measurement": "EC50", "setting": "CMV; Human betaherpesvirus 5, 72 h", "value": 115, "unit": "nM"}]}, {"smiles": "Cc1nc2cc(-c3ccncn3)c(O[C@H]3CCN4C(=O)OC[C@@H]4C3)cc2c(=O)n1Cc1ccc(Cl)cc1", "note": "[Example 130]", "values": [{"measurement": "EC50", "setting": "HSV2; Human alphaherpesvirus 2, 72 h", "value": 287, "unit": "nM"}, {"measurement": "EC50", "setting": "HSV1; Human alphaherpesvirus 1, 72 h", "value": 167, "unit": "nM"}, {"measurement": "EC50", "setting": "CMV; Human betaherpesvirus 5, 72 h", "value": 190, "unit": "nM"}]}]}
